We go through 1 molecule from ChEMBL document CHEMBL3112438, “Structure-based optimization of cyclopropyl urea derivatives as potent soluble epoxide hydrolase inhibitors for potential decrease of renal injury without hypotensive action” (Bioorg Med Chem, 2014).

Values after ≈ are worked out from the molar mass of the structure shown.

One series addresses T1, Cytochrome P450 2C8 (Homo sapiens, UniProt P10632).
T1 sequence (P10632 whole entry): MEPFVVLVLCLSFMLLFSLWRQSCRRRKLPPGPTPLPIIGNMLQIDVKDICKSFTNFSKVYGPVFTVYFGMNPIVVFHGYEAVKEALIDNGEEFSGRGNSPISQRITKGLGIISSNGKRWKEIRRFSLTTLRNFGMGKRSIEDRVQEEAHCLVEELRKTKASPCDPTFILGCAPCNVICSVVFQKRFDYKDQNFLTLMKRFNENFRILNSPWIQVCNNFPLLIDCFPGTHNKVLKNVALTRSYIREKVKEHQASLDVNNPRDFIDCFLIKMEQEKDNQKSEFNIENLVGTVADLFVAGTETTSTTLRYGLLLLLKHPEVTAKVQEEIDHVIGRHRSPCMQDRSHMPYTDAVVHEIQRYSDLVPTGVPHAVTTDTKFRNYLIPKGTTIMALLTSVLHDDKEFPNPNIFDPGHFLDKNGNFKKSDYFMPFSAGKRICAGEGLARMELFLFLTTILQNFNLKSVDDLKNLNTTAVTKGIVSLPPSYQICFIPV
Nature of the series: Inhibition of CYP2C8 in human liver microsomes after 10 mins by mechanism-based assay. It counts as ADME.

Series [1] has as its target T2, Bifunctional epoxide hydrolase 2 (Rattus norvegicus, UniProt P80299).
T2 sequence (P80299 whole entry): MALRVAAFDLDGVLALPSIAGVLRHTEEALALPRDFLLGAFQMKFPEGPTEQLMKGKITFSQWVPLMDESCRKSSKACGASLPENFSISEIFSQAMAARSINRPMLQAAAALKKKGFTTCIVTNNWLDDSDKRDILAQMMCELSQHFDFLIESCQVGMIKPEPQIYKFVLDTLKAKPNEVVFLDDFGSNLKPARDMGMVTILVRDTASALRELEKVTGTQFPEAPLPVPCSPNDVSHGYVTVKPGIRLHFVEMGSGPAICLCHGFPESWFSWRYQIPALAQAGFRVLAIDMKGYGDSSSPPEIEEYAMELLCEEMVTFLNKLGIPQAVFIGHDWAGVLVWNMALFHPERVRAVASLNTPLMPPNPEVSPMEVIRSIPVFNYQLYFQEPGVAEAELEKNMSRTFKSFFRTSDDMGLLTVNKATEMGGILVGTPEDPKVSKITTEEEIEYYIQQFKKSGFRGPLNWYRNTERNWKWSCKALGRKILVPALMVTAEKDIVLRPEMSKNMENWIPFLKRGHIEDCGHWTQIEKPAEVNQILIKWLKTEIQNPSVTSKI
Nature of the series: Inhibition of rat recombinant soluble epoxide hydrolase after 1 hr by fluorescence assay.

For another series, the target named is Cytochrome P450 2C19 (Homo sapiens, UniProt P33261). Nature of the series: Inhibition of CYP2C19 in human liver microsomes after 10 mins by mechanism-based assay. It counts as ADME.
Series [2] has as its system Liver microsome. Nature of the series: Intrinsic clearance in human liver microsomes measured per mg of protein at 1 uM after 30 mins by LC/MS/MS analysis. Format: ADME. The following applies: 0.5 h.
Series [3] in a line: Aqueous solubility of the compound at pH 7.4 after 90 mins. It counts as physicochemical.
The test system of series [4] is Liver microsome. Nature of the series: Intrinsic clearance in rat liver microsomes measured per mg of protein at 1 uM after 30 mins by LC/MS/MS analysis. Format: ADME. The following applies: 0.5 h.

Chain of Cytochrome P450 2C19 (P33261 whole entry): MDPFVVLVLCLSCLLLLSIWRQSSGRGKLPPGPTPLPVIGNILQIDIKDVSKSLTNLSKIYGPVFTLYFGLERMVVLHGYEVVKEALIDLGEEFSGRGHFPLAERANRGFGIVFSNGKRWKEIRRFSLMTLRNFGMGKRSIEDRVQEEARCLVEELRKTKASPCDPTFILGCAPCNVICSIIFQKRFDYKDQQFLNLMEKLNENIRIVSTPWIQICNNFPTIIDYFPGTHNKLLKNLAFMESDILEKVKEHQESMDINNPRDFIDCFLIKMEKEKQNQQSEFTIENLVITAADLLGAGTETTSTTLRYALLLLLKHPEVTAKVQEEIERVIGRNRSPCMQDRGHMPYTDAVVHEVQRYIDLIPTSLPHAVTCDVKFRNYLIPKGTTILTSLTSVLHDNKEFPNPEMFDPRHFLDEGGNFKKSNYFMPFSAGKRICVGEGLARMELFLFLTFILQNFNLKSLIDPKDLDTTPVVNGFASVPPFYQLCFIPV

Turning to `CC(C)c1noc(C2CCN(C(=O)N[C@H]3C[C@@H]3c3ccccc3)CC2)n1` (relative stereo), the “inhibition (INH)” value on Cytochrome P450 2C8 and at Cytochrome P450 2C19 was “Active” throughout. Moreover, the IC50 in series [1] worked out at 8.3 nM. The CLint is less than 0.01 mL/min/mg in the series on Liver microsome [2] and 0.079 mL/min/mg in the series with Liver microsome [4]. Also, the concentration in solution in series [3] (solubility at 1.5 h) was 41 µg/mL (≈ 116 µM).
